From US20200390755A1, “COMPOUND FOR TREATING NERVOUS SYSTEM DISEASES AND USE THEREOF” (SHAANXI MICOT TECHNOLOGY CO., LTD., priority 2018, published 2020)

system: Phospho-Akt S473; test: ELISA analysis of Phospho-Akt S473 in primary cortical neuron cells; assay type: cell-based, mouse; details: 500 nM, 10 min at 37° C.
Description: The primary cortical neuron cells were cultured in the same way as in Example 21, and after maturity, appropriate amount of freshly prepared culture medium was added until final volume in each well was 2 mL. The experiment included a blank control group (Vehicle), a positive control group BDNF (10 ng/mL), a control compound group (500 nM), and 6 test compound groups (500 nM). Three repeats were set for each dose. After incubating at 37° C. for 10 min, the culture solution was discarded and the cells were washed with pre-chilled PBS, and then 40 μL of pre-chilled lysate (RIPA buffer 10 mL and protease and phosphatase inhibitor 100 μL) was added to each well for lysis on ice for 30 min. After lysis, the cell was crushed by ultrasonic cell crusher, centrifuged at 14000 rpm for 20 min at 4° C. The supernatant was transferred to a new 1.5 mL centrifuge tube to extract protein. The p-Akt ELISA experiment quantitatively detected the intracellular p-Akt protein level.
A series of p-Akt standard solutions with different concentrations were prepared, and the absorbance value was measured to make a standard curve. Phospho-Akt1 (Ser473) sandwich ELISA kit was purchased from Cell Signaling Technology (catalog number 7160). The antibody was coated in a 96-well plate at 4° C. overnight and was washed. The coated plate was blocked with 2% bovine serum albumin (BSA), and after sufficient washing, 100 μL of sample diluent (supplied in the kit) was added to each well to dilute the extracted protein. The plate was incubated overnight at 4° C. After washing 4 times with 200 μL of washing buffer (supplied in the kit), 100 μL/well of detection antibody was added and the plate was incubated at 37° C. for 1 hour. After 4 washes, 100 μL of HRP-conjugated secondary antibody (supplied in the kit) was added and the plate was incubated at 37° C. for 30 minutes. After the final wash, 100 μL of TMB substrate was added to each well and the plate was incubated at 37° C. for 10 minutes. TMB was use as a substrate to detect the signal, since TMB can be oxidized to produce a blue solution. The reaction was stopped by adding 100 μL/well stop solution, and the test result can remain stable within one hour after the stop of the reaction. The value of each well at 450 nm and 650 nm was detected using a microplate reader. The optical density (OD) was determined by subtracting the reading at 650 nm (disturbance from the solution itself) from the reading at 450 nm. According to the OD value corresponding to the standard curve, the p-Akt concentration in each well was obtained.
the data of each group was expressed as mean standard error (x±SEM). The ratio of the detection results of each positive control group (BNDF), control compound group (the same control compound as in Example 21) and each test compound group to the blank control group was used as an indicator to compare the p-Akt test results of the positive control group, control compound group, and each test compound group. One-way ANOVA and LSD post-hoc test were used to compare the measurement data among multiple groups, and P<0.05 was considered statistically significant.

Row | SMILES | Relative content of p-Akt protein (ELISA, ratio to blank control group) [%]
1 | O=c1cc(-c2ccc(N3CCCCC3)cc2)oc2c(O)c(O)ccc12 [Example 1, 7,8-dihydroxy-2-(4-(piperidin-1-yl)phenyl)-4H-chromen-4-one] | 212.00±2.122
2 | COc1ccc2c(=O)cc(-c3ccc(N4CCCCC4)cc3)oc2c1OC [Example 2, 7,8-dimethoxy-2-(4-(piperidin-1-yl)phenyl)-4H-chromen-4-one] | 221.67±3.69
3 | CN(C)C1CCN(c2ccc(-c3cc(=O)c4ccc(O)c(O)c4o3)cc2)CC1 [Example 3, 2-(4-(4-(dimethylamino)piperidin-1-yl)phenyl)-7,8-dihydroxy-4H-chromen-4-one] | 247.33±3.18
4 | CC1(C)CCN(c2ccc(-c3cc(=O)c4ccc(O)c(O)c4o3)cc2)CC1 [Example 4, 2-(4-(4,4-dimethylpiperidin-1-yl)phenyl)-7,8-dihydroxy-4H-chromen-4-one] | 224.33±3.27
5 | CC1CC(C)CN(c2ccc(-c3cc(=O)c4ccc(O)c(O)c4o3)cc2)C1 (centres unmarked) [Example 5, 2-(4-(3,5-dimethylpiperidin-1-yl)phenyl)-7,8-dihydroxy-4H-chromen-4-one] | 217.32±2.57

system: N171-82Q HD mice; test: High-altitude balance beam (5 mm) experiment 2, HD mice; assay type: in vivo, mouse; details: 5 mg/kg/d intragastric, 12 w
Description: (§1) 7-week-old N171-82Q HD male mice were paired with female B6C3F1/J hybrid mice to obtain newborn mice. From 21 days of age, male mice were housed in separate cages. 0.5 cm of mouse tail tissue was removed to extract DNA to determine the genotype of the mouse, such that N171-82Q HD mice and WT mice needed for the experiment were obtained. The mice were randomly divided into WT Vehicle group (normal mice), WT test compound group (administration group of normal mice, 5 mg/kg/d, n=10), HD Vehicle group (blank group of HD mice, n=15), HD test compound group (administration groups 1-5 of HD mice, 5 mg/kg/d, n=10). The test compound was suspended in 1% CMC-Na solution and administered by intragastric administration until the end of the study. The weights of the mice were measured every week. Behavioral tests were performed at 12 weeks, 18 weeks, and 24 weeks of age to investigate motor function. At 20 weeks, 3 samples of tissue from each group were used for western blotting and immunohistochemistry. At 24 weeks, MRI scans were performed. At the end of the study, the effect of the test compound on the mortality of mice was evaluated.
(§2) The software Sigmaplot 13.0 was used for statistical analysis of the data, and the data of each group was expressed as mean standard error (x±SEM). Behavioral test results were analyzed using two-way (genotype and processing factor) ANOVA and post-ho tests, the comparison and statistics of weight data were performed using two-way (genotype and age) ANOVA of repeated measures, and mortality was counted using Kaplan-Meier method. Other measurement data were analyzed by one-way ANOVA. P<0.05 was considered statistically significant.
(§3) The motor function of mice was evaluated by the rotarod experiment and three types of balance beam experiments. The shorter the time for mouse to cross the balance beam, and the longer the time to drop, the stronger the coordination ability of the mouse.
(§4) A square balance beam with a length of 100 cm and a width of 11 mm was placed at a 45-degree angle to the horizontal ground. A black box (12×12×12 cm) was placed at the end of the balance beam, and the starting platform was illuminated by bright lights. Spacers were placed under the balance beam to provide cushioning in case that the animal falls off the beam. One hour before the test, the mice were trained to cross the beam three times at one-eighth, one-quarter, and full-length distances from the black box, respectively. If the mice stopped walking during training, they were gently pressed with long forceps on the tail to encourage movement. After the training experiment, the mice rested for at least one hour in an undisturbed environment. In the experiment, the maximum time for each mouse to cross the balance beam was set to 60 seconds. If the time for crossing the beams was greater than 60 seconds, it was recorded as 60 seconds.
a square balance beam with a length of 80 cm and a width of 5 mm was place at a height of about 50 cm from the ground. The following steps are the same as the slope balance beam experiment.

Row | SMILES | Time for crossing the beams, high-altitude balance beam (5 mm) [s]
6 | O=c1cc(-c2ccc(N3CCCCC3)cc2)oc2c(O)c(O)ccc12 [Example 1, 7,8-dihydroxy-2-(4-(piperidin-1-yl)phenyl)-4H-chromen-4-one] | 13.09 ± 4.39
7 | COc1ccc2c(=O)cc(-c3ccc(N4CCCCC4)cc3)oc2c1OC [Example 2, 7,8-dimethoxy-2-(4-(piperidin-1-yl)phenyl)-4H-chromen-4-one] | 12.13 ± 4.97
8 | CN(C)C1CCN(c2ccc(-c3cc(=O)c4ccc(O)c(O)c4o3)cc2)CC1 [Example 3, 2-(4-(4-(dimethylamino)piperidin-1-yl)phenyl)-7,8-dihydroxy-4H-chromen-4-one] | 12.20 ± 4.45
9 | CC1(C)CCN(c2ccc(-c3cc(=O)c4ccc(O)c(O)c4o3)cc2)CC1 [Example 4, 2-(4-(4,4-dimethylpiperidin-1-yl)phenyl)-7,8-dihydroxy-4H-chromen-4-one] | 13.22 ± 4.59
10 | CC1CC(C)CN(c2ccc(-c3cc(=O)c4ccc(O)c(O)c4o3)cc2)C1 (centres unmarked) [Example 5, 2-(4-(3,5-dimethylpiperidin-1-yl)phenyl)-7,8-dihydroxy-4H-chromen-4-one] | 14.25 ± 5.34

same assay, conditions: 5 mg/kg/d intragastric, 18 w

Row | SMILES | Time for crossing the beams, high-altitude balance beam (5 mm) [s]
11 | O=c1cc(-c2ccc(N3CCCCC3)cc2)oc2c(O)c(O)ccc12 [Example 1, 7,8-dihydroxy-2-(4-(piperidin-1-yl)phenyl)-4H-chromen-4-one] | 12.09 ± 3.27
12 | COc1ccc2c(=O)cc(-c3ccc(N4CCCCC4)cc3)oc2c1OC [Example 2, 7,8-dimethoxy-2-(4-(piperidin-1-yl)phenyl)-4H-chromen-4-one] | 13.96 ± 2.74
13 | CN(C)C1CCN(c2ccc(-c3cc(=O)c4ccc(O)c(O)c4o3)cc2)CC1 [Example 3, 2-(4-(4-(dimethylamino)piperidin-1-yl)phenyl)-7,8-dihydroxy-4H-chromen-4-one] | 12.99 ± 4.72
14 | CC1(C)CCN(c2ccc(-c3cc(=O)c4ccc(O)c(O)c4o3)cc2)CC1 [Example 4, 2-(4-(4,4-dimethylpiperidin-1-yl)phenyl)-7,8-dihydroxy-4H-chromen-4-one] | 13.88 ± 5.63
15 | CC1CC(C)CN(c2ccc(-c3cc(=O)c4ccc(O)c(O)c4o3)cc2)C1 (centres unmarked) [Example 5, 2-(4-(3,5-dimethylpiperidin-1-yl)phenyl)-7,8-dihydroxy-4H-chromen-4-one] | 14.98 ± 5.05

same assay, conditions: 5 mg/kg/d intragastric, 24 w

Row | SMILES | Time for crossing the beams, high-altitude balance beam (5 mm) [s]
16 | O=c1cc(-c2ccc(N3CCCCC3)cc2)oc2c(O)c(O)ccc12 [Example 1, 7,8-dihydroxy-2-(4-(piperidin-1-yl)phenyl)-4H-chromen-4-one] | 13.91 ± 3.33
17 | COc1ccc2c(=O)cc(-c3ccc(N4CCCCC4)cc3)oc2c1OC [Example 2, 7,8-dimethoxy-2-(4-(piperidin-1-yl)phenyl)-4H-chromen-4-one] | 14.32 ± 5.44
18 | CN(C)C1CCN(c2ccc(-c3cc(=O)c4ccc(O)c(O)c4o3)cc2)CC1 [Example 3, 2-(4-(4-(dimethylamino)piperidin-1-yl)phenyl)-7,8-dihydroxy-4H-chromen-4-one] | 13.11 ± 5.30
19 | CC1(C)CCN(c2ccc(-c3cc(=O)c4ccc(O)c(O)c4o3)cc2)CC1 [Example 4, 2-(4-(4,4-dimethylpiperidin-1-yl)phenyl)-7,8-dihydroxy-4H-chromen-4-one] | 15.92 ± 7.87
20 | CC1CC(C)CN(c2ccc(-c3cc(=O)c4ccc(O)c(O)c4o3)cc2)C1 (centres unmarked) [Example 5, 2-(4-(3,5-dimethylpiperidin-1-yl)phenyl)-7,8-dihydroxy-4H-chromen-4-one] | 16.80 ± 5.97

system: N171-82Q HD mice; test: Slope balance beam experiment, HD mice; assay type: in vivo, mouse; details: 5 mg/kg/d intragastric, 12 w
Description: as §1, §2, §3, §4

Row | SMILES | Time for crossing the beams, slope balance beam [s]
21 | O=c1cc(-c2ccc(N3CCCCC3)cc2)oc2c(O)c(O)ccc12 [Example 1, 7,8-dihydroxy-2-(4-(piperidin-1-yl)phenyl)-4H-chromen-4-one] | 15.18 ± 3.95
22 | COc1ccc2c(=O)cc(-c3ccc(N4CCCCC4)cc3)oc2c1OC [Example 2, 7,8-dimethoxy-2-(4-(piperidin-1-yl)phenyl)-4H-chromen-4-one] | 17.88 ± 2.83
23 | CN(C)C1CCN(c2ccc(-c3cc(=O)c4ccc(O)c(O)c4o3)cc2)CC1 [Example 3, 2-(4-(4-(dimethylamino)piperidin-1-yl)phenyl)-7,8-dihydroxy-4H-chromen-4-one] | 13.64 ± 6.90
24 | CC1(C)CCN(c2ccc(-c3cc(=O)c4ccc(O)c(O)c4o3)cc2)CC1 [Example 4, 2-(4-(4,4-dimethylpiperidin-1-yl)phenyl)-7,8-dihydroxy-4H-chromen-4-one] | 16.78 ± 5.98
25 | CC1CC(C)CN(c2ccc(-c3cc(=O)c4ccc(O)c(O)c4o3)cc2)C1 (centres unmarked) [Example 5, 2-(4-(3,5-dimethylpiperidin-1-yl)phenyl)-7,8-dihydroxy-4H-chromen-4-one] | 14.94 ± 6.59

same assay, conditions: 5 mg/kg/d intragastric, 18 w

Row | SMILES | Time for crossing the beams, slope balance beam [s]
26 | O=c1cc(-c2ccc(N3CCCCC3)cc2)oc2c(O)c(O)ccc12 [Example 1, 7,8-dihydroxy-2-(4-(piperidin-1-yl)phenyl)-4H-chromen-4-one] | 14.09 ± 3.18
27 | COc1ccc2c(=O)cc(-c3ccc(N4CCCCC4)cc3)oc2c1OC [Example 2, 7,8-dimethoxy-2-(4-(piperidin-1-yl)phenyl)-4H-chromen-4-one] | 17.13 ± 4.76
28 | CN(C)C1CCN(c2ccc(-c3cc(=O)c4ccc(O)c(O)c4o3)cc2)CC1 [Example 3, 2-(4-(4-(dimethylamino)piperidin-1-yl)phenyl)-7,8-dihydroxy-4H-chromen-4-one] | 14.37 ± 5.81
29 | CC1(C)CCN(c2ccc(-c3cc(=O)c4ccc(O)c(O)c4o3)cc2)CC1 [Example 4, 2-(4-(4,4-dimethylpiperidin-1-yl)phenyl)-7,8-dihydroxy-4H-chromen-4-one] | 17.00 ± 5.65
30 | CC1CC(C)CN(c2ccc(-c3cc(=O)c4ccc(O)c(O)c4o3)cc2)C1 (centres unmarked) [Example 5, 2-(4-(3,5-dimethylpiperidin-1-yl)phenyl)-7,8-dihydroxy-4H-chromen-4-one] | 16.67 ± 5.77

same assay, conditions: 5 mg/kg/d intragastric, 24 w

Row | SMILES | Time for crossing the beams, slope balance beam [s]
31 | O=c1cc(-c2ccc(N3CCCCC3)cc2)oc2c(O)c(O)ccc12 [Example 1, 7,8-dihydroxy-2-(4-(piperidin-1-yl)phenyl)-4H-chromen-4-one] | 18.09 ± 6.02
32 | COc1ccc2c(=O)cc(-c3ccc(N4CCCCC4)cc3)oc2c1OC [Example 2, 7,8-dimethoxy-2-(4-(piperidin-1-yl)phenyl)-4H-chromen-4-one] | 19.00 ± 6.84
33 | CN(C)C1CCN(c2ccc(-c3cc(=O)c4ccc(O)c(O)c4o3)cc2)CC1 [Example 3, 2-(4-(4-(dimethylamino)piperidin-1-yl)phenyl)-7,8-dihydroxy-4H-chromen-4-one] | 15.43 ± 4.58
34 | CC1(C)CCN(c2ccc(-c3cc(=O)c4ccc(O)c(O)c4o3)cc2)CC1 [Example 4, 2-(4-(4,4-dimethylpiperidin-1-yl)phenyl)-7,8-dihydroxy-4H-chromen-4-one] | 18.38 ± 5.10
35 | CC1CC(C)CN(c2ccc(-c3cc(=O)c4ccc(O)c(O)c4o3)cc2)C1 (centres unmarked) [Example 5, 2-(4-(3,5-dimethylpiperidin-1-yl)phenyl)-7,8-dihydroxy-4H-chromen-4-one] | 18.58 ± 7.34
